The test system of assay [1] is Laodelphax striatellus. Kind of assay: Insecticidal test on Laodelphax striatellus (rice seedling dip). In kind it is in vivo. Particulars: 192 h, rice seedlings dipped 30 seconds, 3rd-instar larvae, 8 days after inoculation, read-out: insecticidal efficacy (corrected mortality rate), activity level. An excerpt: Insecticidal Test on Laodelphax striatellus
The condensed heterocyclic compounds represented by the general formula (1) of the present invention or salts thereof were separately dispersed in water and diluted to 500 ppm. Rice plant seedlings (variety: Nihonbare) were dipped in the agrochemical dispersions for 30 seconds. After air-dried, each seedling was put into a separate glass test tube and inoculated with ten 3rd-instar larvae of Laodelphax striatellus, and then the glass test tubes were capped with cotton plugs. At 8 days after the inoculation, the numbers of surviving larvae and dead larvae were counted, the corrected mortality rate was calculated according to the formula shown below, and the insecticidal efficacy was evaluated according to the criteria shown below. Corrected mortality rate (%)=100×(Survival rate in a non-treatment plot−Survival rate in a treatment plot)/Survival rate in a non-treatment plot [Math. 2] Corrected Mortality Rate A: the corrected mortality rate is 100%. B: the corrected mortality rate is 90 to 99%. C: the corrected mortality rate is 80 to 89%. D: the corrected mortality rate is 50 to 79%.

Assay [2] has as its system Plutella xylostella. Kind of assay: Insecticidal test on Plutella xylostella (dip of Chinese cabbage seedlings with laid eggs). It counts as in vivo. Particulars: 144 h, seedlings with laid eggs dipped about 30 seconds, 25° C., 6 days after dip treatment, criteria of Test Example 2, read-out: insecticidal efficacy (corrected mortality rate), activity level. From the text: Insecticidal Test on Plutella xylostella
Adults of Plutella xylostella were released onto Chinese cabbage seedlings and allowed to lay eggs thereon. At 2 days after the release of the adults, the Chinese cabbage seedlings with laid eggs were dipped for about 30 seconds in agrochemical dispersions diluted to 500 ppm, each of which contained a different condensed heterocyclic compound represented by the general formula (1) of the present invention as an active ingredient. After air-dried, the seedlings were kept in a thermostatic chamber at 25° C. At 6 days after the dip treatment, the number of hatched larvae per plot was counted, the mortality rate was calculated according to the formula shown below, and the insecticidal efficacy was evaluated according to the criteria of Test Example 2. This test was conducted in triplicate using 10 adults of Plutella xylostella per plot. Corrected mortality rate (%)=100×(Number of hatched larvae in a non-treatment plot−Number of hatched larvae in a treatment plot)/Number of hatched larvae in a non-treatment plot [Math. 3]

Our source for the mortality values is US11064699B2, “Condensed heterocyclic compound or salt thereof, agricultural and horticultural insecticide comprising the compound or the salt, and method for using the insecticide” (Nihon Nohyaku Co., Ltd., priority 2017, dated 2021).

By mortality is commonly meant the percentage killed.

With `CCS(=O)(=O)c1cc(-c2cccc(C(F)(F)F)c2)cnc1-c1nnc2cc(C(F)(F)F)ncn12` [Compound 2-36, 3-(3-(ethylsulfonyl)-5-(3-(trifluoromethyl)phenyl)pyridin-2-yl)-(7-trifluoromethyl)-[1,2,4]Triazolo[4,3-c]Pyrimidine], the mortality at 500 ppm in assay [1] and in assay [2] was 100% each time.
In the case of `CCS(=O)(=O)c1cc2ccc(C(F)(F)F)cc2nc1-c1nnc2cc(C(F)(F)C(F)(F)F)ncn12` [Compound 4-27, 3-(ethylsulfonyl)-2-(7-pentafluoroethyl)-[1,2,4]triazolo[4,3-c]pyrimidin-3-yl-7-(trifluoromethyl) quinoline], the mortality at 500 ppm in assay [1] and in assay [2] was 100% each time.
